According to patent publication US12616200B2, “Herbicidal combinations comprising diflufenican and mesotrione” (priority 2020, dated 2026):

Tests used:
[1] = tested on: AMATU WR-2013-044 (resistant against HPPD-inhibitor herbicides and atrazine (PSII-inhibitor)); assay: Greenhouse pre-emergence herbicidal activity, AMATU WR-2013-044; format: in vivo, Amaranthus tuberculatus; details: 3 weeks, mean of 6
[2] = tested on: AMATU WR-2012-017-08 (resistant against HPPD-inhibitor herbicides and atrazine (PSII-inhibitor)); assay: Greenhouse pre-emergence herbicidal activity, AMATU WR-2012-017-08; format: in vivo, Amaranthus tuberculatus; details: 3 weeks, mean of 6

O=C(Nc1ccc(F)cc1F)c1cccnc1Oc1cccc(C(F)(F)F)c1 [DFF, 2′,4′-difluoro-2-[3-(trifluoromethyl)phenoxy]pyridine-3-carboxanilide]
Activity [%] against AMATU WR-2013-044 ([1]; rate 75 g/ha): 69.2%
Activity [%] against AMATU WR-2013-044 ([1]; rate 150 g/ha): 80.8%
Activity [%] against AMATU WR-2012-017-08 ([2]; rate 75 g/ha): 66.7%
Activity [%] against AMATU WR-2012-017-08 ([2]; rate 150 g/ha): 86.3%

CS(=O)(=O)c1ccc(C(=O)C2C(=O)CCCC2=O)c([N+](=O)[O-])c1 [MST, 2-[4-(methylsulfonyl)-2-nitrobenzoyl]cyclohexane-1,3-dione]
Activity [%] against AMATU WR-2013-044 ([1]; rate 52 g/ha): 70.0%
Activity [%] against AMATU WR-2013-044 ([1]; rate 105 g/ha): 76.7%
Activity [%] against AMATU WR-2012-017-08 ([2]; rate 52 g/ha): 59.2%
Activity [%] against AMATU WR-2012-017-08 ([2]; rate 105 g/ha): 84.2%
